As for `CC(C)c1ccc(OC(C)(Cc2ccc(OCCNC(=O)c3ccc(OCC(F)(F)C(F)F)nc3)cc2)C(=O)O)cc1` (configuration not stated), the melting point was in the range of 173 to 175 °C.

In the case of `O=C1CCCc2ccc(OCCCCN3CCN(c4cccc5c4OCCCO5)CC3)nc2N1`, the melting point was in the range of 200 to 201 °C.

In turn, `CC(=O)c1sccc1CBr` registered a melting point of 62 to 64 °C.

Molecule `CC(C)[C@H]1c2ccc(F)cc2CC[C@]1(O)CC(=O)N(C)CCCc1nc2ccccc2[nH]1` yielded a melting point of 132 to 138 °C.

`COc1ccc(C#Cc2ccc(OC)cc2)cc1`: the melting point lay within 140 to 142 °C.

Take `CCOC(=O)CSC1=CCC2C3CCC4=CC(=O)C=CC4(C)C3(F)C(O)CC12C` (configuration not stated): the melting point lay within 144 to 145 °C.

`COc1cc(-c2nc(NC(=O)c3cc4cc(C)cc(C)c4n3CC(=O)O)sc2CCC2CCCCC2)c(OC)cc1Cl` registered a melting point of 241 °C.

Take `O=c1[nH]c2ccsc2[nH]c1=O`: the melting point was more than 340 °C.

In turn, `CSCc1c(Cl)ccc(C(=O)c2cnoc2C2CC2)c1SC` came in with a melting point of 79.9 to 80.5 °C.

Turning to `Cc1nc(-c2cn(Cc3ccccc3)nn2)sc1C(=O)NCc1ccccc1`, the melting point was 108 to 109 °C.

Molecule `ClC1=Nc2ccccc2Cn2cccc21` displayed a melting point of 102 to 104 °C.

`CC(=O)N1CC(CCN(C)C)Cc2ccc(OCc3ccc(-c4ccccc4)cc3)cc21` (configuration not stated) came in with a melting point of 62 to 63.5 °C.

In turn, `COc1ccc(Oc2cn(C)cc(-c3cccc(C(F)(F)F)c3)c2=O)cc1` registered a melting point of 119 to 120 °C.

The molecule `O=C(Oc1ccccc1)N1CCC(Oc2ccc(F)cc2)CC1` registered a melting point of 98.5 to 100 °C.

`COC(=O)c1cc(-n2c(OC)nc(C(F)(F)C(F)(F)F)cc2=O)c(F)cc1Cl` returned a melting point of 80 to 82 °C.

Turning to `CC(C#N)(C(N)=O)c1cccc(Oc2ccccc2)c1` (configuration not stated), the melting point fell in the range of 123 to 125 °C.

As for `O=C(OCC(O)CO)c1cc(F)ccc1Nc1ccnc2cc(C(F)(F)F)ccc12` (configuration not stated), the melting point lay within 167 to 168 °C.

Regarding `C[C@]12CC(I)C(=O)C=C1CC[C@@H]1[C@@H]2CC[C@]2(C)C(=O)CC[C@@H]12` (some centres not stated), the melting point is 92 °C.

With `CCOC(=O)CCC(=O)OCC(=O)c1ccc(Cl)cc1`, the melting point fell in the range of 50 to 51 °C.

As to `CCCCCCCCCCN(OCc1ccccc1)C(=O)Nc1c(C(C)C)cccc1C(C)C`, the melting point fell in the range of 91 to 93 °C.

Consider `Cc1ccc(Sc2cncc3sc(C(=O)NN)cc23)cc1`, for which the melting point was 176 to 178 °C.

`CC(=O)SCC(C)C(=O)N(C1Cc2ccccc2C1)[C@@H](C)C(=O)O` (some centres not stated) came in with a melting point of 140 to 142 °C.

With `CCCCCc1nc(C)c(C(=O)OCC)n1Cc1ccc2oc(-c3ccccc3-c3nnn[nH]3)c(Br)c2c1`, the melting point lay in the range of 103 to 104 °C.

In turn, `CC(C)(C)OC(=O)N1CC[C@H](Oc2ccc([N+](=O)[O-])cc2)C1` registered a melting point of 112 to 114 °C.

As for `CCOP(=O)(OCC)C(CCc1cc(C)nc2c(I)c(-c3ccccc3)nn12)P(=O)(OCC)OCC`, the melting point fell in the range of 81 to 82 °C.

`c1cc(N=C2SCC3Cc4sccc4CN23)c2ccncc2c1` (racemic) yielded a melting point of 198 °C.

The molecule `CC(C=O)=CC=CC(C)=CCO` registered a melting point of 42 to 45 °C.

Take `COc1ccc2c(c1)C=C(C=O)CO2`: the melting point fell in the range of 49 to 50 °C.

As for `CCOC=C(C(=O)CCl)C(=O)OCC`, the melting point turned out to be 86.5 °C.

As for `CCOC(=O)CN1CC[C@@H](O)C1=O`, the melting point fell in the range of 84 to 85 °C.

`COc1ccc(C2=NN(Cc3ccc(CC(=O)O)cc3)C(=O)[C@H]3CCCC[C@@H]23)cc1OC` (relative stereo) returned a melting point of 164 to 166 °C.

Molecule `C=CCC(C)(C)C(=O)O[C@H]1C[C@H](O)C=C2C=C[C@H](C)[C@H](CCC3CC(O)CC(=O)O3)[C@H]21` (some centres not stated) came in with a melting point of 141 to 142 °C.

Take `CC(C)[C@H](NC(=O)N(C)Cc1cccnc1)C(=O)N[C@@H](Cc1ccccc1)[C@H](O)[C@@H](O)[C@H](Cc1ccccc1)NC(=O)[C@@H](NC(=O)N(C)Cc1ccccn1)C(C)C`: the melting point is 92 to 94 °C.

Regarding `Cc1ccc(C(=O)c2cnn3c(-c4cccc(N(C)C(=O)C5CC5)c4)ccnc23)cc1`, the melting point fell in the range of 189 to 190 °C.

`COc1ccc(-n2nc(OC(C)C)cc2-c2ccc(OCCNC(N)=O)cc2)cn1` came in with a melting point of 120 °C.

`Nc1c(N=O)c(=O)n(CC2CCC2)c(=O)n1CC1CCC1` yielded a melting point of 251 to 252 °C.

`O=C(O)c1cccc(-c2nc(-c3ccc(F)cc3F)cs2)c1` displayed a melting point of 255 to 256 °C.

The molecule `CC(=O)Nc1nc(OS(=O)(=O)c2ccccc2)ncc1F` gave a melting point of 142 to 143 °C.

Regarding `Cc1nc(CS(C)=O)nc(OC(=O)N(C)C)c1C(C)C` (configuration not stated), the melting point was found to be 80 °C.

For `CC(C)NC(=O)CN1CCN(CC2CSC3=C(O2)c2ccccc2C(=O)C3=O)CC1` (configuration not stated), the melting point lay within 85 to 87 °C.

`CNCc1coc(-c2cccc(C3=Nc4ccc(-n5cccc5)cc4NC(=O)C3)c2)n1` registered a melting point of 182 to 183 °C.

Take `COC(=NC#N)NCc1ccc(-c2csc(N=C(N)N)n2)o1`: the melting point was 205 to 206 °C.

On to `CC(=O)CC(O)c1ccc(-c2ccc(N3C[C@H](Cn4ccnn4)OC3=O)cc2F)cn1` (some centres not stated), for which the melting point lay in the range of 130 to 135 °C.

In turn, `COc1ccc(S(=O)(=O)N(Cc2ccccc2)C2(C(=O)NO)CCN(Cc3ccccc3)CC2)cc1` displayed a melting point of 136 to 142 °C.

The molecule `COC(=O)c1sc2ccc(OC)cc2c1OC(C)C#N` (configuration not stated) showed a melting point of 127 to 129 °C.

The molecule `CC(=O)NCCCC(=O)N1CCCC2=C1CCc1cc(Cl)ccc12` came in with a melting point of 142 to 143 °C.

`CC(C)C(=O)C(C)(C)C1(O)C(=O)N(Cc2ccc(Cl)cc2)c2ccccc21` (configuration not stated) came in with a melting point of 105 to 107 °C.

Turning to `CP(C)(=O)C(O)C(N)=O` (configuration not stated), the melting point turned out to be 155 °C.

The molecule `Cc1ccc2cccc(OCc3c(Cl)ccc(C(=O)O)c3Cl)c2n1` returned a melting point of 267 to 270 °C.

In turn, `COc1cccc(-c2nc(-c3ccccc3)c3ncc(Cl)cc3n2)c1` gave a melting point of 112 to 113 °C.

In turn, `CC(=O)Nc1ccc(C#CCCN2CC=C(c3ccccc3)CC2)cc1` came in with a melting point of 172 to 173 °C.

As to `COC(=O)c1c(C)nn(-c2ccccn2)c1S(N)(=O)=O`, the melting point is 196 to 198 °C.

In turn, `CS(=O)(=O)N1CCN([C@@H](CNC(=O)c2ccc(OCc3ccc(F)cc3)cc2)C(=O)NO)CC1` returned a melting point of 194 °C.

In turn, `CN1CCC2(CC1)Nc1ccccc1S2` registered a melting point of 135 to 140 °C.

For the molecule `CCOC(=O)Cc1ccc(NC(=O)C(COC2CCCCO2)NS(=O)(=O)c2ccc(Cl)c([N+](=O)[O-])c2)cc1` (racemic), the melting point lay in the range of 108 to 111 °C.

Consider `Cc1c(Cl)nnc(Cl)c1C(C)(C)CCl`, for which the melting point was in the range of 56 to 58 °C.

`O=C(Cc1c(-c2ccccc2)c2cc3c(cc2oc1=O)C(O)CC3)Nc1ccc(F)cc1C(F)(F)F` (configuration not stated) yielded a melting point of 217 to 218 °C.

Consider `CC1CC(C)CN(S(=O)(=O)c2ccc(F)c(C(=O)O)c2)C1` (configuration not stated), for which the melting point was determined as 140 °C.

In turn, `CC1(C)COC(c2cc(I)cc(C(F)(F)F)c2)=N1` displayed a melting point of 73 to 74.5 °C.

In turn, `O=C(NCC1Cc2ccc3ccccc3c2O1)OCc1ccccc1` (configuration not stated) showed a melting point of 110 to 112 °C.

Molecule `CC(C)CCC(=O)N[C@@H](Cc1ccccc1)C(=O)CSCc1ccco1` returned a melting point of 68 to 71 °C.

`CS(=O)c1ccc(-n2cnc3ccc(-c4nnc(SCc5cccc(C(F)(F)F)c5)o4)cc32)cc1` (configuration not stated) came in with a melting point of 88 to 91 °C.

The molecule `FC(F)(F)C1(c2ccccc2)CCNCC1` yielded a melting point of 87.6 °C.

The molecule `C=CCN1CCN(C2=NC3(C=CC(=O)C=C3)C(Sc3ccccc3)=C2)CC1` yielded a melting point of 175 °C.

Regarding `OCc1ccc2c(ccn2-c2ccnc(N[C@H]3CC[C@H](O)CC3)n2)c1`, the melting point is 232 to 234 °C.

Regarding `CCCCC[C@H]1CC[C@H](c2ncc(-c3ccc(CCCC)cc3)cn2)CC1`, the melting point worked out at 87 °C.

The molecule `CN(C)C(=O)CON(Cc1ccc(F)cc1)C(=O)C=C(O)C(=O)O` had a melting point of 118 to 120 °C.

For the molecule `Cc1[nH]cnc1CSCCNc1[nH]cc(CCc2ccccc2)c1[N+](=O)[O-]`, the melting point fell in the range of 186 to 187 °C.

The molecule `COc1ccc2c(c1)OCC(c1ccc(F)cc1)C2c1ccc(O)cc1` (configuration not stated) had a melting point of 164 to 165 °C.

On to `CCCC1=C(C(=O)OCC)C(c2cccnc2)c2c[nH]nc2N1` (configuration not stated), for which the melting point was found to be 251 °C.

For the molecule `Cc1ccc(CCc2ccnc(N)c2N)cc1`, the melting point lay within 119 to 121 °C.

Take `CCN1CCN(C(=O)c2ccc(C(=O)N3CCN(c4ncccc4NC(C)C)CC3)cc2)CC1`: the melting point fell in the range of 130 to 131 °C.

For the molecule `COC(=O)NC(CCc1ccc(Br)cc1)C(=O)O` (configuration not stated), the melting point is 136 to 137 °C.

As for `NC(=O)Cc1ccc2c(c1)C(=O)Cc1ccccc1O2`, the melting point was in the range of 152 to 154 °C.

For `COC(=O)C=C(Nc1cc(CCCl)c([N+](=O)[O-])cc1OCc1ccccc1)C(F)(F)F`, the melting point lay within 105 to 110 °C.

Take `CCN(CC)C(=O)COc1cc(N)c(Cl)cc1C(=O)OC`: the melting point lay within 97.5 to 99.5 °C.

For the molecule `C(=Cc1ccc(-c2nc(-c3ccccc3)no2)cc1)c1ccc(-c2nc3ccccn3n2)cc1`, the melting point was determined as 287 °C.

Take `O=C(O)CSCc1nccc2ccccc12`: the melting point lay in the range of 186 to 187 °C.

On to `Cc1nn(-c2c(Cl)cc(C(F)(F)F)cc2Cl)c(N)c1C=O`, for which the melting point fell in the range of 169 to 172 °C.

In the case of `CCOCc1nc2c(N)nc3ccc(OCc4ccccc4)cc3c2n1CC(C)(C)NC(=O)C1CCCCC1`, the melting point came out at 90 °C.

`CCOC(=O)C1=Cc2cc(Cl)cc(I)c2OC1C(F)(F)F` (configuration not stated) showed a melting point of 92.1 to 93.9 °C.

For `O=S(=O)(c1ccc(Cl)cc1)C(c1cc(F)ccc1F)c1cc(N2CCCS2(=O)=O)ncc1Cl` (configuration not stated), the melting point is 219 to 221 °C.

For the molecule `CCCCCn1c(=O)c2cc(C(=O)O)cn2c2ccccc21`, the melting point is 184 to 186 °C.

Consider `CCOC(=O)C1(O)C(=O)N2CCOc3cc(Cl)cc1c32` (configuration not stated), for which the melting point was in the range of 186 to 187 °C.

The molecule `Cc1cc(C)nc(NC(C(=O)O)C(c2ccccc2)c2ccccc2)n1` (configuration not stated) gave a melting point of 172 to 174 °C.

Take `O=C(O)c1ccc2c(c1)C(=O)C1(CC1)O2`: the melting point was 215 to 228 °C.

Turning to `N#CC(C#N)=C1C(=O)Nc2ccc(S(=O)(=O)N3CCCC3COc3ccccc3)cc21` (configuration not stated), the melting point was 246 to 248 °C.

For the origin of these results see a melting point compilation (Tetko et al.; mined from patent text by program, amines drawn as free bases though some values may be those of a salt).
